PubChem BioAssay AID1745844 (Carcinogenic Potency Database (CPDB), 2022)
Several values for one entry are separate records, joined by “and”; a condition that tells them apart may be missing. Equal entries are not always repeated. Activity calls are given as the source filed them. The rule behind the calls is not given here.

Tested on: rodent lifetime carcinogenesis bioassay, tumor incidence TD50
Test: carcinogenic potency in animals, long-term in vivo studies, CPDB compilation (AID 1745844)
[1] = mouse, strain B6C3F1, males, by gavage, site: any site (literature study), lesion: several types, types named in the paper, dosed 103 weeks, study length 104 weeks
[2] = rat, strain Fischer 344, females, by gavage, site: any site (literature study), lesion: several types, types named in the paper, dosed 103 weeks, study length 104 weeks
[3] = rat, strain Fischer 344, females, by gavage, site: liver, lesion: hepatocellular adenoma + hepatocellular carcinoma + neoplastic nodule, dosed 103 weeks, study length 104 weeks
[4] = rat, strain Fischer 344, males, by gavage, site: any site (literature study), lesion: several types, types named in the paper, dosed 103 weeks, study length 104 weeks
[5] = rat, strain Fischer 344, males, by gavage, site: liver, lesion: hepatocellular adenoma + hepatocellular carcinoma + neoplastic nodule, dosed 103 weeks, study length 104 weeks
[6] = rat, strain Fischer 344, males, by gavage, site: testis, lesion: interstitial-cell tumor, dosed 103 weeks, study length 104 weeks

## CN(C)P(=O)(N(C)C)N(C)C
rat, strain Charles River CD (Sprague-Dawley), both sexes, inhaled, site: nasal cavity, adenoid, lesion: squamous-cell carcinoma, dosed 53 weeks, study length 104 weeks
  TD50: 0.519 mg/kg/day
rat, strain Charles River CD (Sprague-Dawley), both sexes, inhaled, site: nasal cavity, adenoid, lesion: squamous-cell carcinoma, dosed 72 weeks, study length 104 weeks
  TD50: 0.608 mg/kg/day
rat, strain Charles River CD (Sprague-Dawley), both sexes, inhaled, site: nasal cavity, lesion: epidermoid carcinoma, dosed 53 weeks, study length 104 weeks
  TD50: 0.0581 mg/kg/day
rat, strain Charles River CD (Sprague-Dawley), both sexes, inhaled, site: nasal cavity, lesion: epidermoid carcinoma, dosed 72 weeks, study length 104 weeks
  TD50: 0.0456 mg/kg/day
rat, strain Charles River CD (Sprague-Dawley), both sexes, inhaled, site: nasal cavity, lesion: malignant tumor, dosed 53 weeks, study length 104 weeks
  TD50: 0.0416 mg/kg/day
rat, strain Charles River CD (Sprague-Dawley), both sexes, inhaled, site: nasal cavity, lesion: malignant tumor, dosed 72 weeks, study length 104 weeks
  TD50: 0.0387 mg/kg/day
rat, strain Charles River CD (Sprague-Dawley), both sexes, inhaled, site: nasal cavity, lesion: several types, types named in the paper, dosed 53 weeks, study length 104 weeks
  TD50: 0.0345 mg/kg/day
rat, strain Charles River CD (Sprague-Dawley), both sexes, inhaled, site: nasal cavity, lesion: several types, types named in the paper, dosed 72 weeks, study length 104 weeks
  TD50: 0.0344 mg/kg/day

## CC(I)C1OCC(CO)O1 (configuration not stated)
mouse, strain B6C3F1, females, by gavage, site: Harderian gland + pituitary gland, anterior, lesion: adenoma, NOS + carcinoma, NOS, dosed 103 weeks, study length 105 weeks
  TD50: 92.4 mg/kg/day
mouse, strain B6C3F1, females, by gavage, site: Harderian gland, lesion: adenoma, NOS + carcinoma, NOS, dosed 103 weeks, study length 105 weeks
  TD50: 263 mg/kg/day
mouse, strain B6C3F1, females, by gavage, site: any site (literature study), lesion: several types, types named in the paper, dosed 103 weeks, study length 105 weeks
  TD50: 172 mg/kg/day
mouse, strain B6C3F1, females, by gavage, site: forestomach, lesion: squamous-cell papilloma, dosed 103 weeks, study length 105 weeks
  TD50: 608 mg/kg/day
mouse, strain B6C3F1, females, by gavage, site: liver, lesion: hepatocellular adenoma + hepatocellular carcinoma + neoplastic nodule, dosed 103 weeks, study length 105 weeks
  TD50: 373 mg/kg/day
mouse, strain B6C3F1, females, by gavage, site: liver, lesion: hepatocellular adenoma + hepatocellular carcinoma, dosed 103 weeks, study length 105 weeks
  TD50: 373 mg/kg/day
mouse, strain B6C3F1, females, by gavage, site: liver, lesion: hepatocellular adenoma, dosed 103 weeks, study length 105 weeks
  TD50: 471 mg/kg/day
mouse, strain B6C3F1, females, by gavage, site: lung, lesion: alveolar/bronchiolar adenoma + alveolar/bronchiolar carcinoma, dosed 103 weeks, study length 105 weeks
  TD50: 2740 mg/kg/day
mouse, strain B6C3F1, females, by gavage, site: pituitary gland, anterior, lesion: adenoma, NOS, dosed 103 weeks, study length 105 weeks
  TD50: 138 mg/kg/day
[1]
  carcinogen call: negative (inactive)
mouse, strain B6C3F1, males, by gavage, site: liver, lesion: hepatocellular adenoma + hepatocellular carcinoma + neoplastic nodule, dosed 103 weeks, study length 104 weeks
  TD50: 1100 mg/kg/day
mouse, strain B6C3F1, males, by gavage, site: lung, lesion: alveolar/bronchiolar adenoma + alveolar/bronchiolar carcinoma, dosed 103 weeks, study length 104 weeks
  TD50: 2410 mg/kg/day
[2]
  TD50: 214 mg/kg/day (inactive)
[3]
  TD50: 2490 mg/kg/day
[4]
  TD50: 52.1 mg/kg/day
[5]
  TD50: 571 mg/kg/day
rat, strain Fischer 344, males, by gavage, site: multiple organs + thyroid gland, lesion: mononuclear-cell leukemia + follicular-cell carcinoma, dosed 103 weeks, study length 104 weeks
  TD50: 84.1 mg/kg/day
rat, strain Fischer 344, males, by gavage, site: multiple organs, lesion: mononuclear-cell leukemia, dosed 103 weeks, study length 104 weeks
  TD50: 101 mg/kg/day
rat, strain Fischer 344, males, by gavage, site: nasal cavity, lesion: adenoma, NOS, dosed 103 weeks, study length 104 weeks
  TD50: 1210 mg/kg/day
[6]
  TD50: 40.6 mg/kg/day
rat, strain Fischer 344, males, by gavage, site: thyroid gland, lesion: follicular-cell carcinoma, dosed 103 weeks, study length 104 weeks
  TD50: 280 mg/kg/day

## CC(O)c1ccccc1 (configuration not stated)
mouse, strain B6C3F1, females, by gavage, site: any site (literature study), lesion: several types, types named in the paper, dosed 103 weeks, study length 104 weeks
  carcinogen call: negative (inactive)
[1]
  TD50: 2230 mg/kg/day (inactive)
[2]
  TD50: 826 mg/kg/day
[3]
  TD50: 8630 mg/kg/day
rat, strain Fischer 344, females, by gavage, site: pancreatic islets, lesion: islet-cell adenoma, dosed 103 weeks, study length 104 weeks
  TD50: 2300 mg/kg/day (inactive)
rat, strain Fischer 344, males, by gavage, site: adrenal medulla, lesion: pheochromocytoma + pheochromocytoma, malignant, dosed 103 weeks, study length 104 weeks
  TD50: 135 mg/kg/day
[4]
  TD50: 88.6 mg/kg/day
rat, strain Fischer 344, males, by gavage, site: kidney, lesion: tubular-cell adenoma + tubular-cell adenocarcinoma, dosed 103 weeks, study length 104 weeks
  TD50: 458 mg/kg/day and 944 mg/kg/day
rat, strain Fischer 344, males, by gavage, site: kidney, lesion: tubular-cell adenoma, dosed 103 weeks, study length 104 weeks
  TD50: 984 mg/kg/day and 564 mg/kg/day
[5]
  TD50: 4800 mg/kg/day
rat, strain Fischer 344, males, by gavage, site: lung, lesion: alveolar/bronchiolar adenoma + alveolar/bronchiolar carcinoma, dosed 103 weeks, study length 104 weeks
  TD50: 1050 mg/kg/day
rat, strain Fischer 344, males, by gavage, site: preputial gland, lesion: carcinoma, NOS, dosed 103 weeks, study length 104 weeks
  TD50: 1270 mg/kg/day
[6]
  TD50: 51.5 mg/kg/day
